From patent publication EP0346187B1, “Novel GTP binding protein and method for production thereof” (MITSUBISHI KASEI CORPORATION, priority 1988, dated 1989)

Columns and labels:
[1] = target: T1, G protein (Smg p21), molecular weight of 22,000, purified from bovine brain (Bos taurus, UniProt P62833); experiment: GTP hydrolyzing activity of purified G protein (Smg p21); assay type: biochemical
T1 construct: a crude membrane fraction was extracted with sodium cholate from bovine brain; from tissue; host or cells: bovine brain (crude membrane fraction, cholate extract)
T1 sequence (P62833 1-181 limits assumed): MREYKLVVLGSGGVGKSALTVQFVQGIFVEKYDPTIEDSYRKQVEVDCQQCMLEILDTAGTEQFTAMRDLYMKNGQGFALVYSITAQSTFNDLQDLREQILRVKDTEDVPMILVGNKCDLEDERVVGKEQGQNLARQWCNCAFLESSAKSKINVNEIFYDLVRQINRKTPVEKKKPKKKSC
From the text: (§1) • (a) Crude G protein with molecular weight (relative molecular weight : Mr) of 20,000 to 25,000 was obtained in accordance with the method of Kikuchi, et al. (Journal of the Biological Chemistry, 263, p 2897 - 2904, 1988). Specifically, a crude membrane fraction was extracted with sodium cholate from bovine brain, and the fraction was fractionated on Ultrogel AcA-44 column chromatography to separate and obtain a fraction at the second peak among two peaks showing GTP binding activity. The fraction thus obtained was purified on phenyl Sepharose CL-4B column chromatography and then further fractionated on hydroxyapatite column chromatography to separate and obtain a fraction at the first peak. Then, the first peak fraction was fractionated on Mono Q HR 5/5 column chromatography and the fraction at the first peak was separated and collected to obtain a crude G protein with Mr of 20,000 - 25,000. • (b) The crude G protein obtained in (a) above was subjected to Mono S HR 5/5 column chromatography equilibrated with a buffer solution of 50 mM sodium acetate (pH, 5.0) containing 1 mM EDTA, 1mM dithiothreitol, 5 mM magnesium chloride and 0.6 % CHAPS (3- [(3-cholamidopropyl) dimethylammonio]-1-propane sulfonate). After washing with 5 ml of the same buffer solution, it was eluted out by the same buffer solution (20 ml) with a concentration gradient of sodium chloride (0 - 1.0 M). […]

[2] = target: T1, G protein (Smg p21), molecular weight of 22,000, purified from bovine brain; experiment: GTP binding activity of purified G protein (Smg p21)
From the text: as §1

For Nc1nc2c(ncn2[C@@H]2O[C@H](COP(=O)(O)OP(=O)(O)OP(=O)(O)O)[C@@H](O)[C@H]2O)c(=O)[nH]1 [GTP, guanosine-5-triphosphate], the GTP Hydrolyzing Activity (number of turnovers) [1] was 0.005 min⁻¹ and the Kd ([2]; purified G protein (Smg p21) from bovine brain) was 30 ± 6 nM.
For CCN1C(=O)C=CC1=O [N-ethylmaleimide], the “Effect of N-ethylmaleimide on GTP Binding Activity” value ([2]; no concentration stated, presence of dithiothreitol blocks the inhibition) was “inhibited”.
